Assay [1] concerns integrin β5 localization in PA-JEB/β4 keratinocytes. In words: Immunofluorescence: integrin β5 clustering in FAs/FCLs, PA-JEB/β4. The assay is classed as cell-based, human. An excerpt:
Fig. 3. Serine 759 and 762 are involved in regulating the localization of integrin β5. (A–C) Integrin β5 containing S759/762E or S759/762A mutations (A) were expressed in β5-deficient PA-JEB/β4 keratinocytes and the subcellular distribution of β5 was compared to β5-deficient keratinocytes expressing wild-type (WT) β5. Merged images show integrin β5 (green), vinculin (B) or clathrin (C) (red), actin (blue) and the cell nuclei (cyan). (D,E) Analysis of wild-type versus mutant integrin β5 clustering in FAs or FCLs. (F–I) PA-JEB/β4 keratinocytes were grown in 10% FCS-supplemented DMEM culture medium overnight and then treated with 5 nM calyculin A (Cal.A) or DMSO (vehicle control) for 30 min prior to fixation. Merged images show integrin β5 (green), vinculin (F) or clathrin (H) (red), actin (blue) and the cell nuclei (cyan), quantifications of β5 clustering in FAs or FCLs are shown in G,I. (J,K) Analysis of integrin β5 clustering in FAs or FCLs in PA-JEB keratinocytes after treatment with Cal.A. Representative confocal microscopy images are shown in Fig. S3. Scale bars: 20 μm. Data were obtained from three independent experiments. Total cells analyzed per condition: 109 (WT), 116 (S>E), 103 (S>A) (D), 81 (WT), 77 (S>E), 101 (S>A) (E), 126 and 123 (G), 111 and 101 (I), 106 and 102 (J), 115 and 109 (K). ****P<0.0001 (Mann–Whitney U-test). Box plots range from the 25th to 75th percentile; central line indicates the median; whiskers show smallest to largest value.
PA-JEB/β4 keratinocytes were seeded on glass coverslips and cultured in complete KGM medium for 24 h, and then treated with DMEM plus 10% FCS for 24 h. Other cell lines were seeded on glass coverslips and cultured in DMEM plus 10% FCS. Cells were fixed with 2% paraformaldehyde (PFA) for 10 min, permeabilized with 0.2% Triton X-100 for 5 min, and blocked with PBS containing 2% bovine serum albumin (BSA; Sigma) for at least 30 min. Next, cells were incubated with the primary antibodies for 1 h at room temperature. Cells were washed three times before incubation with the secondary antibodies for 1 h. Additionally, nuclei were stained with DAPI, and filamentous actin was visualized using Alexa Fluor 488 or 647-conjugated phalloidin (Invitrogen). After three washing steps with PBS, the coverslips were mounted onto glass slides in Mowiol. Images were obtained using a Leica TCS SP5 confocal microscope with a 63× (NA 1.4) oil objective.
Image analysis was performed using Fiji (ImageJ) ([Schindelin et al., 2012]; [Schneider et al., 2012]). To quantify integrin clustering in FAs (based on vinculin staining) versus FCLs (clathrin staining), background was subtracted in both channels using a bilateral filter and the region of interest (ROI) was selected at the cell periphery. Colocalization of integrin clusters and FAs or FCLs was determined using the Image Calculator (command ‘multiply’) on both channels and calculating the area of overlapping clusters as a percentage of the total integrin cluster area per cell using the Analyze Particle function.

Assay [2] deals with β5 Ser-759/762 phosphorylation. In words: Mass spectrometry of β5 immunoprecipitates: β5 phosphorylation. Format: cell-based, human. The source says:
Journal of Cell Science | Peer review history […]
opinion most interesting findings linked to the serine/threonine phosphorylation sites.
Response: We have now changed the t itle and abstract to better emphasize the interesting and novel findings (page 1 -2).
Reviewer 2 Comments for the author...
There are some points that the authors may want to consider: […]
only very limited binding to kindlin-1/2. Furthermore, the phosphomimetic β5-S759/762E mutant promotes localization in FCLs. In the BirA experiments, the authors detect no biotinylation of clathrin adaptors ARH and NUMB with the b5/b1 or b5/b1 chimeras, in contrast to the b5 wt. Is this also the case for clathrin or AP2-mu, established components of FCL?
Response: We thank the reviewer for his/her useful remark. […]
The peptide pull-downs in figure 2 are a little problematic given the high Bg binding of NUMB and ARH to the b1 scr peptide. […] In addition, quantifications from several biological repeats of the pulldowns might help t o establish the reproducibility and statistical significance of the differences indicated by the authors in the text. […]
Figure 3. […] Specifically, we assessed whether phosphorylation of […]
of β5 at S759 and S762 could be detected (discussed in the middle of page 13).
Figure 4. is there a reason for using talin rather than vinculin staining as a FA marker here? […] Could this be analysed and mentioned in the text? […]

With `COC[C@@H]([C@H](O)[C@H](O)C(=O)NCC[C@H](C)c1nc(/C=C/C[C@@H]2O[C@]3(C[C@@H](O)[C@@H]2C)O[C@H]([C@H](C[C@H](O)[C@H](C)[C@H](O)[C@H](C)/C=C(C)/C(C)=C/C=C/C(C)=C\C#N)OC)[C@H](OP(=O)(O)O)C3(C)C)co1)N(C)C` [calyculin A], the “localization of integrin β5 in FAs, PA-JEB/β4” value in assay [1] (5 nM calyculin A versus DMSO, 30 min, 10% FCS DMEM, colocalization with vinculin, three independent experiments) is “decreased the localization of integrin β5 in FAs”. In assay [1] (calyculin A treatment, summary in discussion), the “redistribution of the integrin” value is given as “only led to a minor redistribution of the integrin”. The “detection of β5 phosphorylation at S759 and S762” value in assay [2] (25 nM calyculin for 20 min, PA-JEB/β4 keratinocytes, anti-β5 immunoprecipitation, MS/MS) is recorded as “no phosphorylation”. Further, the “detection of β5 phosphorylation at Ser-759/762” value in assay [2] (calyculin A-treated cells, mass spectrometry of β5 immunoprecipitates) is “unsuccessful”.
